Common to all, as to test: biochemical
The target of assay [1] is BRM (Isoform 2) Bromodomain (Homo sapiens, UniProt P51531). An excerpt: IC50 measurements for inhibitors using BRM SM TR-FRET Binding Assay
For assay [2], the target named is Polybromodomain-1 BromoDomain-5 (PB1-BD5) (Homo sapiens, UniProt Q86U86). From the text:
IC50 measurements for inhibitors using Polybromodomain-1 BromoDomain-5 (PB1-BD5) SM TR-FRET Binding Assay

For assay [3], the target named is BRG1 (Homo sapiens, UniProt P51532). It counts as binding. Particulars: BRG1 HTRF IC50 (µM). From the text: IC50 measurements for inhibitors using BRG1 TR-FRET Binding Assay
For orientation: Time-resolved FRET reads energy transfer from a long-lived donor to a nearby acceptor.

The results in this text go back to patent EP3262036B1, “THERAPEUTIC PYRIDAZINE COMPOUNDS AND USES THEREOF” (priority 2015, dated 2016).

Sequence of Polybromodomain-1 BromoDomain-5 (PB1-BD5) (Q86U86 645-766): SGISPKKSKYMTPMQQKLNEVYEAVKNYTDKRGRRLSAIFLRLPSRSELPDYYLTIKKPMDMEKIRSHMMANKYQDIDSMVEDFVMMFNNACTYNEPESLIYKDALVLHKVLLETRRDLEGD
Sequence of BRM (Isoform 2) Bromodomain (P51531 1377-1486 isoform P51531-2): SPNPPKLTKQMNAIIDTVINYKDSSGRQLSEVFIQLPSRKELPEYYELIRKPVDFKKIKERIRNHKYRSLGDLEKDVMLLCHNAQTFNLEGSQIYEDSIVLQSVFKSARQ
Sequence of BRG1 (P51532 1448-1575): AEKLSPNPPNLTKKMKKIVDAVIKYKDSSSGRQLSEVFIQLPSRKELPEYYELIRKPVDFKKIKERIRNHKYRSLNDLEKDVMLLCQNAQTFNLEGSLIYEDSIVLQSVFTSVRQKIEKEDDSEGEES

With `C[C@H](Oc1cc(-c2ccccc2O)nnc1N)c1ccccc1` [Example 170, (S)-2-(6-amino-5-(1-phenylethoxy)pyridazin-3-yl)phenol], the IC50 in assay [1] is 14.9 nM; in assay [2], 9.6 nM.
As to `Nc1nnc(-c2ccccc2O)cc1N1CCOCC1` [Example 45, 2-(6-amino-5-morpholinopyridazin-3-yl)phenol], the IC50 worked out at 0.101 µM in assay [3], 71.5 nM in assay [1] and 20.9 nM in assay [2].
Consider `Nc1nnc(-c2ccccc2O)cc1OC1CCN(Cc2ccccc2)C1` (stereo not shown) [Example 180, 2-(6-amino-5-((1-benzylpyrrolidin-3-yl)oxy)pyridazin-3-yl)phenol], for which the concentration for half-maximal inhibition (IC50) in assay [3] was found to be 0.0432 µM; in assay [1], 59.7 nM; in assay [2], 43.9 nM.
For the compound `CNc1ccc(-c2ccccc2O)nn1` [Example 204, 2-(6-(methylamino)pyridazin-3-yl)phenol], the results for the IC50 in assay [3], in assay [1] and in assay [2] were 0.893 µM, 1040 nM and 349 nM, respectively.
`Nc1nnc(-c2ccccc2O)cc1N1CCN(Cc2cccnc2)CC1` [Example 3, 2-(6-amino-5-(4-(pyridin-3-ylmethyl)piperazin-1-yl)pyridazin-3-yl)phenol]: the concentration for half-maximal inhibition (IC50) in assay [3] was determined as 0.0373 µM; in assay [2], 25.2 nM.
As for `CC(Oc1cc(-c2ccccc2O)nnc1N)C1CCOCC1` (stereo not shown) [Example 168, 2-(6-amino-5-(1-(tetrahydro-2H-pyran-4-yl)ethoxy)pyridazin-3-yl)phenol], the half-maximal inhibitory concentration (IC50) stood at 0.169 µM in assay [3], 197 nM in assay [1] and 113 nM in assay [2].
For `CC(c1ccccc1)n1cc(-c2cc(-c3ccccc3O)nnc2N)cn1` (stereo not shown) [Example 188, 2-(6-amino-5-(1-(1-phenylethyl)-1H-pyrazol-4-yl)pyridazin-3-yl)phenol], the IC50 in assay [1] was found to be 5.7 nM; in assay [2], 2.5 nM.
As for `CC1CN(c2cc(-c3ccccc3O)nnc2N)CC(C)O1` (racemic) [Example 33, 2-(6-amino-5-(2,6-dimethylmorpholino)pyridazin-3-yl)phenol], the results for the IC50 in assay [1] and in assay [2] were 69.6 nM and 24 nM, respectively.
`Nc1nnc(-c2ccccc2O)cc1N1C[C@H]2CN(Cc3ccccc3)C[C@H]2C1` [Example 9, 2-(6-amino-5-((3aR,6aS)-5-benzylhexahydropyrrolo[3,4-c]pyrrol-2(1H)-yl)pyridazin-3-yl)phenol]: the IC50 in assay [3] was 0.0615 µM; in assay [1], 47.6 nM; in assay [2], 18.2 nM.
As for `CN(C)CC1CCN(c2cc(-c3ccccc3O)nnc2N)CC1` [Example 5, 2-(6-amino-5-(4-((dimethylamino)methyl)piperidin-1-yl)pyridazin-3-yl)phenol], the values for the IC50 in assay [3] and in assay [1] were 0.0395 µM and 22.5 nM, respectively.
With `Nc1nnc(-c2ccccc2O)cc1C1CCN(S(=O)(=O)c2ccccc2)C1` (stereo not shown) [Example 217, 2-(6-amino-5-(1-(phenylsulfonyl)pyrrolidin-3-yl)pyridazin-3-yl)phenol], the IC50 in assay [3] worked out at 0.412 µM; in assay [1], 466 nM; in assay [2] it was 268 nM.
For `Nc1nnc(-c2ccccc2O)cc1N1CC2CCC(C1)N2Cc1ccccc1` [Example 16, 2-(6-amino-5-(8-benzyl-3,8-diazabicyclo[3.2.1]octan-3-yl)pyridazin-3-yl)phenol], the half-maximal inhibitory concentration (IC50) in assay [3] came to 0.0563 µM; in assay [1], 79 nM; in assay [2], 51.3 nM.
In the case of `Nc1nnc(-c2ccccc2O)cc1OCCc1ccccc1` [Example 174, 2-(6-amino-5-phenethoxypyridazin-3-yl)phenol], the figures for the IC50 in assay [3], in assay [1] and in assay [2] were 0.0148 µM, 19 nM and 8.8 nM, respectively.
On the same counts, the results for `CC(Cc1ccccc1)Oc1cc(-c2ccccc2O)nnc1N` (stereo not shown) [Example 177, 2-(6-amino-5-((1-phenylpropan-2-yl)oxy)pyridazin-3-yl)phenol] are 0.1 µM, 92.5 nM and 29.2 nM.
For `CC(=O)N1CCN(c2cc(-c3ccccc3O)nnc2N)CC1` [Example 4, 1-(4-(3-amino-6-(2-hydroxyphenyl)pyridazin-4-yl)piperazin-1-yl)ethan-1-one], the IC50 was determined as 0.0659 µM in assay [3], 71.7 nM in assay [1] and 24.6 nM in assay [2].
On the same counts, the results for `Nc1nnc(-c2ccccc2O)cc1C1CCCC1` [Example 210, 2-(6-amino-5-cyclopentylpyridazin-3-yl)phenol] are 0.0239 µM, 25 nM and 14.9 nM.
As to `CC1CN(c2cc(-c3ccccc3O)nnc2N)CCN1C(=O)C(C)(C)C` (stereo not shown) [Example 129, 1-(4-(3-amino-6-(2-hydroxyphenyl)pyridazin-4-yl)-2-methylpiperazin-1-yl)-2,2-dimethylpropan-1-one], the IC50 in assay [3] turned out to be 0.0104 µM; in assay [1] it was 18.4 nM; in assay [2], 6.8 nM.
Regarding `Nc1nnc(-c2ccccc2O)cc1N1CC(Oc2ccccc2)C1` [Example 57, 2-(6-amino-5-(3-phenoxyazetidin-1-yl)pyridazin-3-yl)phenol], the IC50 in assay [3] was determined as 0.0177 µM; in assay [1] it was 35.6 nM.
With `CN(C)CCOc1cc(-c2ccccc2O)nnc1N` [Example 173, 2-(6-amino-5-(2-(dimethylamino)ethoxy)pyridazin-3-yl)phenol], the IC50 turned out to be 0.263 µM in assay [3], 276 nM in assay [1] and 257 nM in assay [2].
For `CN(C)Cc1ccc(-c2cc(-c3ccccc3O)nnc2N)cc1` [Example 189, 2-(6-amino-5-(4-((dimethylamino)methyl)phenyl)pyridazin-3-yl)phenol], the results for the IC50 in assay [3], in assay [1] and in assay [2] were 0.0222 µM, 49.3 nM and 28.8 nM, respectively.
Regarding `CC(c1ccccc1)N1CCN(c2cc(-c3ccccc3O)nnc2N)CC1` (stereo not shown) [Example 15, 2-(6-amino-5-(4-(1-phenylethyl)piperazin-1 - yl)pyridazin-3-yl)phenol], the concentration for half-maximal inhibition (IC50) in assay [1] came to 36.1 nM; in assay [2], 24.5 nM.
Turning to `Cn1cc(-c2cc(-c3ccccc3O)nnc2N)cn1` [Example 187, 2-(6-amino-5-(1-methyl-1H-pyrazol-4-yl)pyridazin-3-yl)phenol], the figures for the IC50 in assay [1] and in assay [2] were 10 nM and 3.7 nM, respectively.
With `Nc1nnc(-c2ccccc2O)cc1C1CCN(Cc2ccccc2)CC1` [Example 218, 2-(6-amino-5-(1-benzylpiperidin-4-yl)pyridazin-3-yl)phenol], the IC50 in assay [3] amounted to 0.0553 µM; in assay [2], 44.8 nM.
On the same counts, the results for `CS(=O)(=O)N1CCN(c2cc(-c3ccccc3O)nnc2N)CC1Cc1ccccc1` (stereo not shown) [Example 119, 2-(6-amino-5-(3-benzyl-4-(methylsulfonyl)piperazin-1-yl)pyridazin-3-yl)phenol] are 0.0385 µM and 23.3 nM.
On to `Cn1nccc1-c1cc(-c2ccccc2O)nnc1N` [Example 193, 2-(6-amino-5-(1-methyl-1H-pyrazol-5-yl)pyridazin-3-yl)phenol], for which 1.08 µM corresponded to half-maximal inhibition in assay [3] (IC50).
Same read-out and setting: the result for `CC(=O)N1CCCC(Oc2cc(-c3ccccc3O)nnc2N)C1` (stereo not shown) [Example 247, 1-(3-((3-amino-6-(2-hydroxyphenyl)pyridazin-4-yl)oxy)piperidin-1-yl)ethanone] reads 0.137 µM.
`Cc1cc(CN2CCN(c3cc(-c4ccccc4O)nnc3N)CC2)no1` [Example 101, 2-[6-amino-5-[4-[(5-methylisoxazol-3-yl)methyl]piperazin-1-yl]pyridazin-3-yl]phenol] came in with an IC50 in assay [3] of 0.0653 µM.
Compound `Cn1ccnc1CN1CCN(c2cc(-c3ccccc3O)nnc2N)CC1` [Example 99, 2-[6-amino-5-[4-[(1-methylimidazol-2-yl)methyl]piperazin-1-yl]pyridazin-3-yl]phenol] had a half-inhibitory concentration (IC50) in assay [3] of 0.0324 µM.
On the same count and under the same terms, for `CC(Oc1cc(-c2ccccc2O)nnc1N)c1cccnc1` (stereo not shown) [Example 171, 2-(6-amino-5-(1-(pyridin-3-yl)ethoxy)pyridazin-3-yl)phenol] the value was 0.0792 µM; for `Nc1ccc(-c2ccccc2O)nn1` [Example 203, 2-(6-aminopyridazin-3-yl)phenol], 0.335 µM.
The same measure, in the same setting: for `Nc1nnc(-c2ccccc2O)cc1N1CCC(c2ccccc2)C1` (stereo not shown) [Example 55, 2-(6-amino-5-(3-phenylpyrrolidin-1-yl)pyridazin-3-yl)phenol] the value was 0.123 µM; for `Cc1ccc(S(=O)(=O)N2CCC(c3cc(-c4ccccc4O)nnc3N)CC2)cc1` [Example 219, 2-(6-amino-5-(1-tosylpiperidin-4-yl)pyridazin-3-yl)phenol], 0.36 µM.
Consider `Nc1nnc(-c2ccccc2O)cc1N1CCc2[nH]ncc2C1` [Example 52, 2-(6-amino-5-(1,4,6,7-tetrahydro-5H-pyrazolo[4,3-c]pyridin-5-yl)pyridazin-3-yl)phenol], for which, in assay [3], the IC50 was found to be 0.128 µM.
The compound `Nc1nnc(-c2ccccc2O)cc1C1CCOCC1` [Example 213, 2-(6-amino-5-(tetrahydro-2H-pyran-4-yl)pyridazin-3-yl)phenol] displayed an IC50 in assay [3] of 0.0611 µM.
As to `CN(C)CCCOc1cc(-c2ccccc2O)nnc1N` [Example 175, 2-(6-amino-5-(3-(dimethylamino)propoxy)pyridazin-3-yl)phenol], in assay [3], inhibition was half-maximal at 0.117 µM (IC50).
As to `COCCS(=O)(=O)N1CCN(c2cc(-c3ccccc3O)nnc2N)C[C@H]1C` [Example 117, (R)-2-(6-amino-5-(4-((2-methoxyethyl)sulfonyl)-3-methylpiperazin-1-yl)pyridazin-3-yl)phenol], the IC50 in assay [3] worked out at 0.0535 µM.
With `CC(C)(O)C(=O)N1C2CCC1CN(c1cc(-c3ccccc3O)nnc1N)C2` [Example 120, 1-(3-(3-amino-6-(2-hydroxyphenyl)pyridazin-4-yl)-3,8-diazabicyclo[3.2.1]octan-8-yl)-2-hydroxy-2-methylpropan-1-one], in assay [3], the IC50 came out at 0.0444 µM.
The compound `CC1CN(c2cc(-c3ccccc3O)nnc2N)CCN1C(=O)CN(C)C` (stereo not shown) [Example 162, 1-(4-(3-amino-6-(2-hydroxyphenyl)pyridazin-4-yl)-2-methylpiperazin-1-yl)-2-(dimethylamino)ethanone] had an IC50 in assay [3] of 0.0586 µM.

By IC50 is commonly meant the concentration that inhibits the measured activity by half. A higher IC50 goes with weaker potency.
